Experimental data: US20230355597A1, “COMPOUNDS, COMPOSITIONS, AND METHODS FOR THE TREATMENT AND PREVENTION OF AVIAN PATHOGENIC E. COLI (APEC)” (OHIO STATE INNOVATION FOUNDATION, priority 2018, published 2023)
Values after ≈ are worked out from the molar mass of the structure shown. Where two headings read alike, the source gives them in different places. Marks after values point to notes of the source that are not given here.

What was measured:
[1] = test system: APEC O78; type: cell-based, avian pathogenic Escherichia coli (APEC); settings: APEC O78, M63 media
[2] = test system: APEC O1; type: cell-based, avian pathogenic Escherichia coli (APEC); settings: APEC O1, M63 media; MIC/MBC
[3] = test system: APEC O2; type: cell-based, avian pathogenic Escherichia coli (APEC); settings: APEC O2, M63 media; MIC/MBC
[4] = test system: APEC O8; type: cell-based, avian pathogenic Escherichia coli (APEC); settings: APEC O8, M63 media; MIC/MBC
[5] = test system: APEC O15; type: cell-based, avian pathogenic Escherichia coli (APEC); settings: APEC O15, M63 media; MIC/MBC
[6] = test system: APEC O18; type: cell-based, avian pathogenic Escherichia coli (APEC); settings: APEC O18, M63 media; MIC/MBC
[7] = test system: APEC O35; type: cell-based, avian pathogenic Escherichia coli (APEC); settings: APEC O35, M63 media; MIC/MBC
[8] = test system: APEC O115; type: cell-based, avian pathogenic Escherichia coli (APEC); settings: APEC O115, M63 media; MIC/MBC
[9] = test system: APEC O109; type: cell-based, avian pathogenic Escherichia coli (APEC); settings: APEC O109, M63 media; MIC/MBC
[10] = test system: APEC O78-53; type: cell-based, avian pathogenic Escherichia coli (APEC); settings: APEC O78-53, M63 media; MIC/MBC
[11] = test system: APEC O1-63; type: cell-based, avian pathogenic Escherichia coli (APEC); settings: APEC O1-63, M63 media; MIC/MBC
[12] = test system: APEC O2-211; type: cell-based, avian pathogenic Escherichia coli (APEC); settings: APEC O2-211, M63 media; MIC/MBC
[13] = test system: biofilm embedded APEC O78; assay: MBEC High-throughput assay; type: cell-based, avian pathogenic Escherichia coli (APEC); settings: for MBEC: biofilm embedded APEC O78, superscript = multiple of MIC (footnote)
Description: Effect against biofilm embedded APEC. The effect of cidal SMs against biofilm embedded APEC was determined using MBEC High-throughput (HTP) assay (Innovotech Inc., AB, Canada). Briefly, 150 µL of 0.05 OD600 adjusted APEC O78 culture was aliquoted into each well of the MBEC device containing polystyrene pegs and incubated at 37° C. for 36 h in LB media under stationary condition. […] The plate was incubated in the dark for 18 h at 37° C. with rotation at 110 rpm. The DMSO (1%) and M63 media were used as positive and negative controls, respectively. Following incubation, MIC of SMs in challenged plate was recorded. The SMs exposed pegs were then transferred to a new 96-well plate containing PBS and sonicated for 30 mins (Aquasonic ultrasonic cleaner, VWR) to disrupt the biofilm. […] Biofilm embedded APEC bacteria were enumerated and minimum biofilm eradication concentration (MBEC) of […] were determined. Two independent experiments were conducted.

[14] = test system: APEC O78; assay: Confocal microscopy bacterial cytological profiling; type: cell-based, avian pathogenic Escherichia coli (APEC); settings: 2X MBC
Description: Confocal and scanning electron microscopy. Confocal microscopy was used for bacterial cytological profiling (BCP) to identify the cellular pathways targeted by SMs as described previously. […] After incubation, treated cultures were centrifuged, washed, and resuspended in 100 μL PBS. […] Cultures were then centrifuged, washed, and resuspended in PBS to 1⁄10th volume of the original cultures.

[15] = test system: APEC O78; assay: Loss of 260/280 nm absorbing materials assay; type: cell-based, avian pathogenic Escherichia coli (APEC); settings: 2X MBC, 1 h, *P<0.05 vs DMSO; for Absorbance 260: 260 nm absorbing material in supernatant; for Absorbance 280: 280 nm absorbing material in supernatant
[16] = test system: intracellular APEC O78 in Caco-2 cells; assay: Intracellular survival assay (cidal SMs); settings: O78, Caco-2, 6 h treatment; superscript = multiple of MIC
[17] = test system: intracellular APEC O78 in HD11 cells; assay: Intracellular survival assay (cidal SMs); settings: O78, HD11, 6 h treatment; superscript = multiple of MIC
[18] = test system: intracellular APEC O78 in THP-1 cells; assay: Intracellular survival assay (cidal SMs); settings: O78, THP-1, 6 h treatment; superscript = multiple of MIC
[19] = test system: intracellular APEC O2 in Caco-2 cells; assay: Intracellular survival assay (cidal SMs); settings: O2, Caco-2, 6 h treatment; superscript = multiple of MIC
[20] = test system: intracellular APEC O2 in HD11 cells; assay: Intracellular survival assay (cidal SMs); settings: O2, HD11, 6 h treatment; superscript = multiple of MIC
[21] = test system: intracellular APEC O2 in THP-1 cells; assay: Intracellular survival assay (cidal SMs); settings: O2, THP-1, 6 h treatment; superscript = multiple of MIC
[22] = test system: intracellular APEC O1 in Caco-2 cells; assay: Intracellular survival assay (cidal SMs); settings: O1, Caco-2, 6 h treatment; superscript = multiple of MIC
[23] = test system: intracellular APEC O1 in HD11 cells; assay: Intracellular survival assay (cidal SMs); settings: O1, HD11, 6 h treatment; superscript = multiple of MIC
[24] = test system: intracellular APEC O1 in THP-1 cells; assay: Intracellular survival assay (cidal SMs); settings: O1, THP-1, 6 h treatment; superscript = multiple of MIC
[25] = test system: Rif^r APEC O78; assay: In vivo efficacy of growth inhibitors in APEC infected broiler chickens; settings: for reduction of average APEC load in internal organs: average of liver, lung and kidney; for reduction of average APEC load in internal organs / reduction of APEC load, Heart / reduction of APEC load, Kidney / reduction of APEC load, Liver / reduction of APEC load, Lung: vs untreated control; for reduction of APEC induced mortality: oral gavage twice a day, 5 days, untreated mortality (58.34%) normalized to 100%; for reduction of APEC lesions severity (%), Air-sacs (airsacculitis) / reduction of APEC lesions severity (%), Heart (pericarditis) / reduction of APEC lesions severity (%), Liver (perihepatitis) / reduction of APEC lesions severity (%), Lung (lung congestion): untreated control = 100%; for Body weight gain (BWG): weight of live chickens before necropsy minus weight before treatment
[26] = test system: intracellular APEC O78, O2, and O1 in infected Caco-2, HD11, and THP1 cells; assay: Intracellular survival assay (cidal SMs), summary over serotypes and cells; settings: overall ranking

SMILES: COc1ccc(CNCc2cccc(C(F)(F)F)c2)cc1OCC(O)CN1CCCC1 (centres unmarked) [SM7]
- MIC ([1]; MIC/MBC): 25 µM (≈ 11 µg/mL)
- MBC ([1]; cell prints MIC/MBC): 50 µM (≈ 21.9 µg/mL)
- MBC [2]: 100 µM (≈ 43.8 µg/mL)
- MIC [2]: 50 µM (≈ 21.9 µg/mL)
- MBC [3]: 50 µM (≈ 21.9 µg/mL)
- MIC [3]: 25 µM (≈ 11 µg/mL)
- MBC [4]: 200 µM (≈ 87.7 µg/mL)
- MIC [4]: 100 µM (≈ 43.8 µg/mL)
- MBC [5]: 50 µM (≈ 21.9 µg/mL)
- MIC [5]: 50 µM (≈ 21.9 µg/mL)
- MBC [6]: 100 µM (≈ 43.8 µg/mL)
- MIC [6]: 50 µM (≈ 21.9 µg/mL)
- MBC [7]: 50 µM (≈ 21.9 µg/mL)
- MIC [7]: 25 µM (≈ 11 µg/mL)
- MBC [8]: 100 µM (≈ 43.8 µg/mL)
- MIC [8]: 100 µM (≈ 43.8 µg/mL)
- MBC [9]: 100 µM (≈ 43.8 µg/mL)
- MIC [9]: 100 µM (≈ 43.8 µg/mL)
- MBC [10]: 50 µM (≈ 21.9 µg/mL)
- MIC [10]: 50 µM (≈ 21.9 µg/mL)
- MBC [11]: 100 µM (≈ 43.8 µg/mL)
- MIC [11]: 50 µM (≈ 21.9 µg/mL)
- MBC [12]: 50 µM (≈ 21.9 µg/mL)
- MIC [12]: 50 µM (≈ 21.9 µg/mL)
- MBEC [13]: 50^b µM
- cytological profile (confocal, FM4-64 / SYTO-9) [14]: membrane pore formers
- Absorbance 260 [15]: 3.91*
- Absorbance 280 [15]: 2.70*
- SMs intracellular APEC clearance concentration [16]: 100^c µM
- SMs intracellular APEC clearance concentration [17]: 50^b µM
- SMs intracellular APEC clearance concentration [18]: 50^b µM
- SMs intracellular APEC clearance concentration [19]: 100^c µM
- SMs intracellular APEC clearance concentration [20]: 100^c µM
- SMs intracellular APEC clearance concentration [21]: 25^a µM
- SMs intracellular APEC clearance concentration [22]: 100^c µM
- SMs intracellular APEC clearance concentration [23]: 100^c µM
- SMs intracellular APEC clearance concentration [24]: >100 µM
- reduction of average APEC load in internal organs ([25]; heart): 2.6 logs
- cumulative lesions score ([25]; liver, heart, lung and air-sacs, untreated 6.2): 2.4
- reduction of APEC induced mortality [25]: 71.42%
- reduction of APEC lesions severity (%), Air-sacs (airsacculitis) [25]: 52.9%
- reduction of APEC lesions severity (%), Heart (pericarditis) [25]: 60%
- reduction of APEC lesions severity (%), Liver (perihepatitis) [25]: 60%
- reduction of APEC lesions severity (%), Lung (lung congestion) [25]: 83.3%
- effect on BWG of chickens ([25]; vs non-treated and non-infected chickens): indistinguishable BWG
- reduction of APEC load, Heart [25]: 2.3 log CFU/g of tissues
- reduction of APEC load, Kidney [25]: 3.2 log CFU/g of tissues
- reduction of APEC load, Liver [25]: 2.5 log CFU/g of tissues
- reduction of APEC load, Lung [25]: 2.4 log CFU/g of tissues
- Body weight gain (BWG) [25]: 261.30±20.43
- effectiveness in clearing intracellular APEC serotypes in all tested cells [26]: most effective

SMILES: CC(=O)OC(C(Br)C(=O)c1ccc([N+](=O)[O-])cc1)C(Cl)(Cl)Cl (centres unmarked) [SM10]
- MBC ([1]; cell prints MIC/MBC): 50 µM (≈ 21.7 µg/mL)
- MIC ([1]; cell prints MIC/MBC): 25 µM (≈ 10.8 µg/mL)
- MBC [2]: 25 µM (≈ 10.8 µg/mL)
- MIC [2]: 25 µM (≈ 10.8 µg/mL)
- MBC [3]: 50 µM (≈ 21.7 µg/mL)
- MIC [3]: 25 µM (≈ 10.8 µg/mL)
- MBC [4]: 50 µM (≈ 21.7 µg/mL)
- MIC [4]: 50 µM (≈ 21.7 µg/mL)
- MBC [5]: 100 µM (≈ 43.3 µg/mL)
- MIC [5]: 50 µM (≈ 21.7 µg/mL)
- MBC [6]: 100 µM (≈ 43.3 µg/mL)
- MIC [6]: 25 µM (≈ 10.8 µg/mL)
- MBC [7]: 50 µM (≈ 21.7 µg/mL)
- MIC [7]: 25 µM (≈ 10.8 µg/mL)
- MBC [8]: 50 µM (≈ 21.7 µg/mL)
- MIC [8]: 25 µM (≈ 10.8 µg/mL)
- MBC [9]: 50 µM (≈ 21.7 µg/mL)
- MIC [9]: 25 µM (≈ 10.8 µg/mL)
- MBC [10]: 50 µM (≈ 21.7 µg/mL)
- MIC [10]: 25 µM (≈ 10.8 µg/mL)
- MBC [11]: 100 µM (≈ 43.3 µg/mL)
- MIC [11]: 50 µM (≈ 21.7 µg/mL)
- MBC [12]: 50 µM (≈ 21.7 µg/mL)
- MIC [12]: 25 µM (≈ 10.8 µg/mL)
- reduction of biofilms embedded APEC ([13]; at 1X MIC): significantly (P<0.05) reduced
- MBEC [13]: >200 µM
- cytological profile (confocal, FM4-64 / SYTO-9) [14]: PG synthesis inhibitors
- Absorbance 260 [15]: 3.98*
- Absorbance 280 [15]: 2.73*
- SMs intracellular APEC clearance concentration [16]: 100^c µM
- SMs intracellular APEC clearance concentration [17]: 50^b µM
- SMs intracellular APEC clearance concentration [18]: 100^c µM
- SMs intracellular APEC clearance concentration [19]: 100^c µM
- SMs intracellular APEC clearance concentration [20]: 100^c µM
- SMs intracellular APEC clearance concentration [21]: 50^b µM
- SMs intracellular APEC clearance concentration [22]: 100^c µM
- SMs intracellular APEC clearance concentration [23]: >100 µM
- SMs intracellular APEC clearance concentration [24]: >100 µM
- reduction of average APEC load in internal organs ([25]; heart): 1.3 logs
- reduction of APEC induced mortality [25]: 71.42%
- reduction of APEC lesions severity (%), Air-sacs (airsacculitis) [25]: -52.9%
- reduction of APEC lesions severity (%), Heart (pericarditis) [25]: -28%
- reduction of APEC lesions severity (%), Liver (perihepatitis) [25]: 20%
- reduction of APEC lesions severity (%), Lung (lung congestion) [25]: 0%
- reduction of APEC load, Heart [25]: 1.0 log CFU/g of tissues
- reduction of APEC load, Kidney [25]: 2.4 log CFU/g of tissues
- reduction of APEC load, Liver [25]: 0.8 log CFU/g of tissues
- reduction of APEC load, Lung [25]: 1.4 log CFU/g of tissues
- Body weight gain (BWG) [25]: 220.75±38.93
- effectiveness in clearing intracellular APEC serotypes in all tested cells [26]: most effective
